Assay results published in patent US10604535B2, “Compounds, compositions and methods” (Denali Therapeutics Inc., priority 2016, dated 2020).

Molecular target: GST-hRIPK1 (8-327) (Homo sapiens (Human), UniProt Q13546)
Test: Fluorescent Polarization Binding (FP Binding) assay

GST-hRIPK1 (8-327), sequence (Q13546 8-327): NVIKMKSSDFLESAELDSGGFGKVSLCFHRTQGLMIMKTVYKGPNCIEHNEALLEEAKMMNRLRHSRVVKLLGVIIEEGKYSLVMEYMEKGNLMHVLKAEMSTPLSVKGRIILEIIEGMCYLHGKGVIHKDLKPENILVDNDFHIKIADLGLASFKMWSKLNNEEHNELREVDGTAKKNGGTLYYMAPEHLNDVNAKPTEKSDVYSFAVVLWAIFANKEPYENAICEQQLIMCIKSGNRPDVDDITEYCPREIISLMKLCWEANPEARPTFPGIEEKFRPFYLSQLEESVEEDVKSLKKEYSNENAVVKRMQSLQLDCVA

SMILES | IC50 [nM]
CN1C(=O)[C@@H](NC(=O)[C@@H]2C[C@H]2Cc2ccccc2)COc2ccccc21 (single isomer, unassigned) [Example 50A] | 0.1 to 1000
CN1C(=O)[C@@H](NC(=O)[C@H]2C[C@@H]2Cc2ccccc2)COc2ccccc21 (single isomer, unassigned) [Example 50B] | 1000 to 10000
O=C(NC1COc2cccnc2-n2ccnc21)c1nn(Cc2ccccc2)cc1F (stereo in doubt) [Example 154A, (R)-1-benzyl-N-(6,7-dihydroimidazo[1,2-d]pyrido[3,2-b][1,4]oxazepin-7-yl)-4-fluoro-1H-pyrazole-3-carboxamide] | > 3000
CN1C(=O)[C@@H](NC(=O)c2cc3n(n2)CC[C@@H]3c2ccccc2)COc2ccccc21 [Example 13, (R)—N—((S)-5-methyl-4-oxo-2,3,4,5-tetrahydrobenzo[b][1,4]oxazepin-3-yl)-4-phenyl-5,6-dihydro-4H-pyrrolo[1,2-b]pyrazole-2-carboxamide] | 0.1 to 1000
CN1C(=O)[C@@H](NC(=O)c2cc(CC(F)(F)F)on2)COc2ccccc21 [Example 14, (S)—N-(5-methyl-4-oxo-2,3,4,5-tetrahydrobenzo[b][1,4]oxazepin-3-yl)-5-(2,2,2-trifluoroethyl)isoxazole-3-carboxamide] | 0.1 to 1000
CN1C(=O)[C@@H](NC(=O)C2CN(Cc3ccccc3)C2)COc2ccccc21 [Example 33, (S)-1-benzyl-N-(5-methyl-4-oxo-2,3,4,5-tetrahydrobenzo[b][1,4]oxazepin-3-yl) azetidine-3-carboxamide] | > 10000
CN1C(=O)[C@@H](NC(=O)C2CC(Cc3ccccc3)C2)COc2ccccc21 (stereo partly drawn) [Example 43, 3-benzyl-N—((S)-5-methyl-4-oxo-2,3,4,5-tetrahydrobenzo[b][1,4]oxazepin-3-yl)cyclobutane-1-carboxamide] | 1000 to 10000
CN1C(=O)[C@@H](NC(=O)c2ncc(S(=O)(=O)c3ccccc3)s2)COc2ccccc21 [Example 49, (S)—N-(5-methyl-4-oxo-2,3,4,5-tetrahydrobenzo[b][1,4]oxazepin-3-yl)-5-(phenylsulfonyl)thiazole-2-carboxamide] | 1000 to 10000
C[C@@H]1Oc2cccnc2N(C)C(=O)[C@H]1NC(=O)c1nn(Cc2ccccc2)cc1F [Example 93, 1-benzyl-N-((2S,3S)-2,5-dimethyl-4-oxo-2,3,4,5-tetrahydropyrido[3,2-b][1,4]oxazepin-3-yl)-4-fluoro-1H-pyrazole-3-carboxamide] | 0.1 to 1000
CN1C(=O)[C@H](NC(=O)c2cc(Oc3ccccc3F)ccn2)[C@@H]2C[C@@H]2c2cccnc21 [Example 100B, 4-(2-fluorophenoxy)-N-((1aR,2R,8bS)-4-methyl-3-oxo-1,1a,2,3,4,8b-hexahydrocyclopropa[d]pyrido[2,3-b]azepin-2-yl)picolinamide] | 0.1 to 1000
CN1C(=O)[C@@H](NC(=O)c2cnc(Cc3ccccc3)[nH]2)COc2cccnc21 [Example 108, (S)-2-benzyl-N-(5-methyl-4-oxo-2,3,4,5-tetrahydropyrido[3,2-b][1,4]oxazepin-3-yl)-1H-imidazole-5-carboxamide] | 0.1 to 1000
CN1C(=O)[C@H](NC(=O)c2nnc(Cc3ccccc3)[nH]2)[C@@H]2C[C@@H]2c2nccnc21 [Example 119A, 5-benzyl-N-((7R,7aR,8aS)-5-methyl-6-oxo-5,6,7,7a,8,8a-hexahydro-cyclopropa[d]pyrazino[2,3-b]azepin-7-yl)-4H-1,2,4-triazole-3-carboxamide] | > 3000
CN1C(=O)[C@H](NC(=O)c2nnc(Cc3ccccc3)s2)[C@@H]2C[C@@H]2c2cccnc21 [Example 120B, 5-benzyl-N-((1aR,2R,8bS)-4-methyl-3-oxo-1,1a,2,3,4,8b-hexahydrocyclopropa-[d]pyrido[2,3-b]azepin-2-yl)-1,3,4-thiadiazole-2-carboxamide] | > 3000
CN1C(=O)[C@@H](NC(=O)c2cc(Oc3ccc(F)cc3F)ccn2)CCc2cccnc21 [Example 121B, (S)-4-(2,4-difluorophenoxy)-N-(9-methyl-8-oxo-6,7,8,9-tetrahydro-5H-pyrido[2,3-b]azepin-7-yl)picolinamide] | 0.1 to 1000

Continued, values first:

IC50 [nM] | SMILES
1000 to 10000 | O=C(N[C@H]1COc2cccnc2NC1=O)c1nnc(C2CCc3ccccc32)[nH]1 (single isomer, unassigned) [Example 102A]
0.1 to 1000 | O=C(N[C@H]1COc2cccnc2NC1=O)c1nnc(C2CCc3ccccc32)[nH]1 (single isomer, unassigned) [Example 102B]
> 3000 | CN1C(=O)C(NC(=O)c2nnc(Cc3ccccc3)[nH]2)[C@@H]2C[C@@H]2c2ccccc21 (stereo in doubt) [Example 46B, 5-benzyl-N-((2S)-4-methyl-3-oxo-1,1a,2,3,4,8b-hexahydrobenzo[b]cyclopropa[d]azepin-2-yl)-4H-1,2,4-triazole-3-carboxamide]
> 3000 | Cc1nc2c(s1)CC[C@@H](NC(=O)c1nnc(Cc3ccccc3)[nH]1)C(=O)N2C [Example 38B, (R)-5-benzyl-N-(2,4-dimethyl-5-oxo-5,6,7,8-tetrahydro-4H-thiazolo[4,5-b]azepin-6-yl)-4H-1,2,4-triazole-3-carboxamide]
> 3000 | C[C@@H]1Oc2cccnc2N(C)C(=O)[C@H]1NC(=O)c1nnc(Cc2ccccc2)[nH]1 [Example 95, 5-benzyl-N-((2S,3S)-2,5-dimethyl-4-oxo-2,3,4,5-tetrahydropyrido[3,2-b][1,4]oxazepin-3-yl)-4H-1,2,4-triazole-3-carboxamide]
> 3000 | O=C(N[C@@H]1CC2(CC2)c2cccnc2NC1=O)c1nnc(Cc2ccccc2)[nH]1 [Example 98A, (R)-5-benzyl-N-(8′-oxo-6′,7′,8′,9′-tetrahydrospiro[cyclopropane-1,5′-pyrido[2,3-b]azepin]-7′-yl)-4H-1,2,4-triazole-3-carboxamide]
0.1 to 1000 | O=C(N[C@H]1CC2(CC2)c2cccnc2NC1=O)c1nnc(Cc2ccccc2)[nH]1 [Example 98B, (S)-5-benzyl-N-(8′-oxo-6′,7′,8′,9′-tetrahydrospiro[cyclopropane-1,5′-pyrido[2,3-b]azepin]-7′-yl)-4H-1,2,4-triazole-3-carboxamide]
> 3000 | CN1C(=O)[C@H](NC(=O)c2nnc(Cc3ccccc3)[nH]2)CCc2c1cnn2C [Example 101A, (R)-5-benzyl-N-(1,4-dimethyl-5-oxo-1,4,5,6,7,8-hexahydropyrazolo[4,3-b]azepin-6-yl)-4H-1,2,4-triazole-3-carboxamide]
> 3000 | O=C(N[C@@H]1CC2(CC2)c2cc(F)cc(F)c2NC1=O)c1nnc(Cc2ccccc2)[nH]1 [Example 103A, (R)-5-benzyl-N-(7,9-difluoro-2-oxo-1,2,3,4-tetrahydrospiro[benzo[b]azepine-5,1′-cyclopropan]-3-yl)-4H-1,2,4-triazole-3-carboxamide]
> 3000 | Cn1cc2c(n1)CC[C@@H](NC(=O)c1nnc(Cc3ccccc3)[nH]1)C(=O)N2 [Example 104A, (R)-5-benzyl-N-(2-methyl-5-oxo-2,4,5,6,7,8-hexahydropyrazolo[4,3-b]azepin-6-yl)-4H-1,2,4-triazole-3-carboxamide]
0.1 to 1000 | Cn1cc2c(n1)CC[C@H](NC(=O)c1nnc(Cc3ccccc3)[nH]1)C(=O)N2 [Example 104B, (S)-5-benzyl-N-(2-methyl-5-oxo-2,4,5,6,7,8-hexahydropyrazolo[4,3-b]azepin-6-yl)-4H-1,2,4-triazole-3-carboxamide]
> 3000 | CN1C(=O)[C@H](NC(=O)c2nnc(Cc3ccccc3)[nH]2)CCc2nn(C)cc21 [Example 105B, (R)-5-benzyl-N-(2,4-dimethyl-5-oxo-2,4,5,6,7,8-hexahydropyrazolo[4,3-b]azepin-6-yl)-4H-1,2,4-triazole-3-carboxamide]
0.1 to 1000 | CN1C(=O)[C@@H](NC(=O)c2nnc(C3(c4ccccc4)CC3)[nH]2)COc2cccnc21 [Example 106, (S)—N-(5-methyl-4-oxo-2,3,4,5-tetrahydropyrido[3,2-b][1,4]oxazepin-3-yl)-5-(1-phenylcyclopropyl)-4H-1,2,4-triazole-3-carboxamide]
> 3000 | CN1C(=O)[C@H](NC(=O)c2nn(Cc3ccccc3)cc2F)CCc2nn(C)cc21 [Example 109B, (R)-1-benzyl-N-(2,4-dimethyl-5-oxo-2,4,5,6,7,8-hexahydropyrazolo[4,3-b]azepin-6-yl)-4-fluoro-1H-pyrazole-3-carboxamide]
> 3000 | O=C(N[C@H]1C(=O)Nc2ncccc2[C@H]2C[C@H]21)c1nnc(Cc2ccccc2)[nH]1 [Example 110A, 5-benzyl-N-((1aR,2R,8bS)-3-oxo-1,1a,2,3,4,8b-hexahydrocyclopropa[d]pyrido[2,3-b]azepin-2-yl)-4H-1,2,4-triazole-3-carboxamide]
1000 to 10000 | CN1C(=O)[C@H](NC(=O)c2nn(Cc3ccccc3)cc2F)CCc2cccnc21 [Example 111A, (R)-1-benzyl-4-fluoro-N-(9-methyl-8-oxo-6,7,8,9-tetrahydro-5H-pyrido[2,3-b]azepin-7-yl)-1H-pyrazole-3-carboxamide]
0.1 to 1000 | CN1C(=O)[C@@H](NC(=O)c2nnc(C3(c4ccccc4)CC3)[nH]2)COc2cnccc21 [Example 113, (S)—N-(1-methyl-2-oxo-1,2,3,4-tetrahydropyrido[3,4-b][1,4]oxazepin-3-yl)-5-(1-phenylcyclopropyl)-4H-1,2,4-triazole-3-carboxamide]
> 3000 | CN1C(=O)[C@H](NC(=O)c2nn(Cc3ccccc3)cc2F)CCc2c1cnn2C [Example 114B, (R)-1-benzyl-N-(1,4-dimethyl-5-oxo-1,4,5,6,7,8-hexahydropyrazolo[4,3-b]azepin-6-yl)-4-fluoro-1H-pyrazole-3-carboxamide]
> 3000 | Cn1ncc2c1CC[C@@H](NC(=O)c1nnc(Cc3ccccc3)[nH]1)C(=O)N2 [Example 118A, (R)-5-benzyl-N-(1-methyl-5-oxo-1,4,5,6,7,8-hexahydropyrazolo[4,3-b]azepin-6-yl)-4H-1,2,4-triazole-3-carboxamide]
1000 to 10000 | Cn1ncc2c1CC[C@H](NC(=O)c1nnc(Cc3ccccc3)[nH]1)C(=O)N2 [Example 118B, (S)-5-benzyl-N-(1-methyl-5-oxo-1,4,5,6,7,8-hexahydropyrazolo[4,3-b]azepin-6-yl)-4H-1,2,4-triazole-3-carboxamide]
